Test results reported in PubChem BioAssay AID256 (DTP/NCI, 2004).
Several values for one entry are separate records, joined by “and”; a condition that tells them apart may be missing. Equal entries are not always repeated. Toxic doses and inconclusive results are not listed. The calls were made as follows: active = survival T/C of 150% or more; inactive = T/C below 125% in these data.

Test system: CD2F1 mice, L1210 leukemia ip, survival T/C
Assay: NCI In Vivo Anticancer Drug Screen. Data for tumor model L1210 Leukemia (intraperitoneal) in CD2F1 (CDF1) mice
Conditions: higher = longer survival
Procedure, shortened: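 Mice carrying a transplanted tumor received test compound or vehicle alone. The value is the measurement in the treated group divided by that in the vehicle-treated control group.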

[1] = endpoint: mean survival time, dose: 100.0 mg/kg/injection, schedule: Q01DX009 (ip), vehicle: Klucel (hydroxypropylcellulose) (HPC)
[2] = endpoint: mean survival time, dose: 200.0 mg/kg/injection, schedule: Q01DX009 (ip), vehicle: Klucel (hydroxypropylcellulose) (HPC)
[3] = endpoint: mean survival time, dose: 25.0 mg/kg/injection, schedule: Q01DX009 (ip), vehicle: saline with Tween-80
[4] = endpoint: mean survival time, dose: 50.0 mg/kg/injection, schedule: Q01DX009 (ip), vehicle: saline with Tween-80
[5] = endpoint: mean survival time, dose: 100.0 mg/kg/injection, schedule: Q01DX009 (ip), vehicle: saline with Tween-80
[6] = endpoint: mean survival time, dose: 200.0 mg/kg/injection, schedule: Q01DX009 (ip), vehicle: saline with Tween-80
[7] = endpoint: mean survival time, dose: 400.0 mg/kg/injection, schedule: Q01DX009 (ip), vehicle: saline with Tween-80
[8] = endpoint: mean survival time, dose: 100.0 mg/kg/injection, schedule: Q04DX003 (ip), vehicle: saline with Tween-80
[9] = endpoint: mean survival time, dose: 100.0 mg/kg/injection, schedule: Q04DX003 (ip), vehicle: saline
[10] = endpoint: mean survival time, dose: 200.0 mg/kg/injection, schedule: Q04DX003 (ip), vehicle: saline with Tween-80
[11] = endpoint: mean survival time, dose: 200.0 mg/kg/injection, schedule: Q04DX003 (ip), vehicle: saline
[12] = endpoint: mean survival time, dose: 400.0 mg/kg/injection, schedule: Q04DX003 (ip), vehicle: saline with Tween-80
[13] = endpoint: mean survival time, dose: 100.0 mg/kg/injection, schedule: Q01DX001 (ip), vehicle: saline with Tween-80
[14] = endpoint: mean survival time, dose: 200.0 mg/kg/injection, schedule: Q01DX001 (ip), vehicle: saline with Tween-80
[15] = endpoint: mean survival time, dose: 50.0 mg/kg/injection, schedule: Q01DX009 (ip), vehicle: Klucel (hydroxypropylcellulose) (HPC)

Measured: T/C

CC(=O)Nc1ccc(S(=O)(=O)/N=S(\C)c2ccc(C)cc2)cc1 (stereo unspecified)
inactive: [1] 95 % of control | [2] 89 % of control | endpoint: mean survival time, dose: 400.0 mg/kg/injection, schedule: Q01DX009 (ip), vehicle: Klucel (hydroxypropylcellulose) (HPC) 91 % of control | endpoint: mean survival time, dose: 600.0 mg/kg/injection, schedule: Q01DX009 (ip), vehicle: Klucel (hydroxypropylcellulose) (HPC) 92 % of control

O=C(N/N=C\c1cc(Br)cc(Br)c1O)N/N=C/c1cc(Br)cc(Br)c1O
inactive: [3] 117 % of control | [4] 104 % of control and 111 % of control | [5] 116 % of control and 122 % of control | [6] 118 % of control and 94 % of control | [7] 116 % of control and 88 % of control

C[S+](C)CCC1NC(=O)NC1=O (stereo unspecified)
inactive: [8] 107 % of control | [9] 98 % of control | [10] 102 % of control | [11] 102 % of control | [12] 93 % of control

CCc1ccccc1NC(=O)Nc1ccc(N(C)C(C)=O)cc1
inactive: [5] 95 % of control | [6] 93 % of control | [7] 93 % of control

COc1cc(C=O)ccc1OCc1ccccc1
inactive: [8] 106 % of control | [10] 95 % of control | [12] 113 % of control

CC(/C=N/O)=N\O.CC(/C=N/O)=N\O.[Pd]
inactive: endpoint: mean survival time, dose: 1.56 mg/kg/injection, schedule: Q01DX009 (ip), vehicle: saline with Tween-80 98 % of control | endpoint: mean survival time, dose: 1.56 mg/kg/injection, schedule: Q04DX002 (ip), vehicle: saline with Tween-80 100 % of control | endpoint: mean survival time, dose: 3.13 mg/kg/injection, schedule: Q01DX009 (ip), vehicle: saline with Tween-80 95 % of control | endpoint: mean survival time, dose: 3.13 mg/kg/injection, schedule: Q04DX002 (ip), vehicle: saline with Tween-80 95 % of control | endpoint: mean survival time, dose: 6.25 mg/kg/injection, schedule: Q04DX002 (ip), vehicle: saline with Tween-80 88 % of control | endpoint: mean survival time, dose: 25.0 mg/kg/injection, schedule: Q04DX002 (ip), vehicle: saline with Tween-80 102 % of control

Cc1ccc(OCc2c(COc3ccc(Cl)cc3)sc3ccc(Cl)cc23)cc1
inactive: [8] 96 % of control | [12] 88 % of control

COc1ccc(NC(=O)NCCCl)cc1
inactive: [13] 90 % of control | [14] 94 % of control

C=C1C(=O)OC2CC/C=C\CCC12 (stereo unspecified)
inactive: endpoint: mean survival time, dose: 50.0 mg/kg/injection, schedule: Q01DX009 (ip), vehicle: saline 105 % of control | endpoint: mean survival time, dose: 100.0 mg/kg/injection, schedule: Q01DX009 (ip), vehicle: saline 97 % of control | endpoint: mean survival time, dose: 200.0 mg/kg/injection, schedule: Q01DX009 (ip), vehicle: saline 102 % of control

c1cc(C[N+]23CN4CN(CN(C4)C2)C3)cs1
inactive: [8] 91 % of control

CC(C)(C(O)c1ccccc1)[N+](=O)[O-] (stereo unspecified)
inactive: [13] 105 % of control | [5] 102 % of control | [14] 102 % of control | [6] 95 % of control | endpoint: mean survival time, dose: 400.0 mg/kg/injection, schedule: Q01DX001 (ip), vehicle: saline with Tween-80 98 % of control | [7] 96 % of control

S=c1cc[nH]c(=S)[nH]1
inactive: endpoint: mean survival time, dose: 12.5 mg/kg/injection, schedule: Q01DX009 (ip), vehicle: Klucel (hydroxypropylcellulose) (HPC) 102 % of control | endpoint: mean survival time, dose: 25.0 mg/kg/injection, schedule: Q01DX009 (ip), vehicle: Klucel (hydroxypropylcellulose) (HPC) 98 % of control | [15] 101 % of control

O=C(O)c1cc(F)c(F)c(F)c1F
inactive: endpoint: mean survival time, dose: 12.5 mg/kg/injection, schedule: Q01DX009 (ip), vehicle: saline with Tween-80 91 % of control | [3] 97 % of control | endpoint: mean survival time, dose: 25.0 mg/kg/injection, schedule: Q04DX003 (ip), vehicle: saline with Tween-80 96 % of control | [4] 103 % of control | endpoint: mean survival time, dose: 50.0 mg/kg/injection, schedule: Q04DX003 (ip), vehicle: saline with Tween-80 94 % of control

Cc1cccc(N(C)C(=S)Oc2ccc3ccccc3c2)c1
inactive: [15] 112 % of control | [1] 89 % of control | [2] 89 % of control

c1ccc(C2=C(c3ccccc3)C(c3ccccc3)(c3ccccc3)c3ccccc32)cc1
inactive: [8] 101 % of control | [10] 98 % of control | [12] 98 % of control

O=C(O/N=C(/CN1CCOCC1)c1ccc(Cl)cc1)c1ccccc1
inactive: [8] 97 % of control | [10] 94 % of control | [12] 90 % of control

Cc1ncc2cnccn12
inactive: endpoint: mean survival time, dose: 50.0 mg/kg/injection, schedule: Q01DX009 (ip), vehicle: saline sonified 101 % of control | endpoint: mean survival time, dose: 100.0 mg/kg/injection, schedule: Q01DX009 (ip), vehicle: saline sonified 104 % of control | [9] 97 % of control | [11] 101 % of control

C=C1CC2CCC1C2 (stereo unspecified)
inactive: [5] 96 % of control | [8] 104 % of control | [10] 98 % of control | [12] 98 % of control

O=c1nc(-c2ccco2)sc(=O)[nH]1
inactive: endpoint: median survival time, dose: 25.0 mg/kg/injection, schedule: Q01DX009 (ip), vehicle: Klucel (hydroxypropylcellulose) (HPC) 100 % of control | endpoint: median survival time, dose: 50.0 mg/kg/injection, schedule: Q01DX009 (ip), vehicle: Klucel (hydroxypropylcellulose) (HPC) 106 % of control | endpoint: median survival time, dose: 100.0 mg/kg/injection, schedule: Q01DX009 (ip), vehicle: Klucel (hydroxypropylcellulose) (HPC) 96 % of control | endpoint: median survival time, dose: 200.0 mg/kg/injection, schedule: Q01DX009 (ip), vehicle: Klucel (hydroxypropylcellulose) (HPC) 102 % of control

Brc1ccc(-c2ccc(Br)cc2)cc1
inactive: endpoint: mean survival time, dose: 100.0 mg/kg/injection, schedule: Q04DX003 (ip), vehicle: Klucel (hydroxypropylcellulose) (HPC) 105 % of control | endpoint: mean survival time, dose: 200.0 mg/kg/injection, schedule: Q04DX003 (ip), vehicle: Klucel (hydroxypropylcellulose) (HPC) 95 % of control | endpoint: mean survival time, dose: 400.0 mg/kg/injection, schedule: Q04DX003 (ip), vehicle: Klucel (hydroxypropylcellulose) (HPC) 95 % of control

CCCC[CH2][Pb]([CH2]CCCC)([CH2]CCCC)[O]C(C)=O
inactive: endpoint: mean survival time, dose: 0.25 mg/kg/injection, schedule: Q01DX009 (ip), vehicle: saline with Tween-80 96 % of control | endpoint: mean survival time, dose: 0.5 mg/kg/injection, schedule: Q01DX009 (ip), vehicle: saline with Tween-80 93 % of control | endpoint: mean survival time, dose: 1.0 mg/kg/injection, schedule: Q01DX009 (ip), vehicle: saline with Tween-80 90 % of control | endpoint: mean survival time, dose: 1.0 mg/kg/injection, schedule: Q04DX003 (ip), vehicle: saline with Tween-80 95 % of control

CNC(=S)NCc1ccc(C(=O)NC(C)C)cc1
inactive: endpoint: mean survival time, dose: 50.0 mg/kg/injection, schedule: Q01DX009 (ip), vehicle: other 97 % of control | endpoint: mean survival time, dose: 100.0 mg/kg/injection, schedule: Q01DX009 (ip), vehicle: other 95 % of control | endpoint: mean survival time, dose: 200.0 mg/kg/injection, schedule: Q01DX009 (ip), vehicle: other 100 % of control | endpoint: mean survival time, dose: 400.0 mg/kg/injection, schedule: Q01DX009 (ip), vehicle: other 91 % of control

Cc1cccc(-c2nn[nH]n2)n1
inactive: endpoint: mean survival time, dose: 12.5 mg/kg/injection, schedule: Q01DX001 (ip), vehicle: saline with Tween-80 98 % of control | endpoint: mean survival time, dose: 25.0 mg/kg/injection, schedule: Q01DX001 (ip), vehicle: saline with Tween-80 90 % of control | endpoint: mean survival time, dose: 100.0 mg/kg/injection, schedule: Q01DX001 (ip), vehicle: saline 103 % of control | endpoint: mean survival time, dose: 200.0 mg/kg/injection, schedule: Q01DX001 (ip), vehicle: saline 113 % of control | endpoint: mean survival time, dose: 400.0 mg/kg/injection, schedule: Q01DX001 (ip), vehicle: saline 101 % of control

CCCCCCCC/C=C\CCCCCCCCNC(C)=O
inactive: [5] 89 % of control | [6] 89 % of control

O=C(O)c1cc(Cl)c(C(=O)O)cc1Cl
inactive: [8] 96 % of control | [10] 102 % of control | [12] 105 % of control

CCCCCCCCCCCC[n+]1ccc(C#N)cc1
inactive: endpoint: mean survival time, dose: 9.38 mg/kg/injection, schedule: Q01DX001 (ip), vehicle: saline 103 % of control | endpoint: mean survival time, dose: 18.75 mg/kg/injection, schedule: Q01DX001 (ip), vehicle: saline 94 % of control

CCCCCCCCCCCCSC#N
inactive: endpoint: mean survival time, dose: 100.0 mg/kg/injection, schedule: Q04DX002 (ip), vehicle: Klucel (hydroxypropylcellulose) (HPC) 101 % of control | endpoint: mean survival time, dose: 100.0 mg/kg/injection, schedule: Q04DX002 (ip), vehicle: saline with Tween-80 96 % of control | endpoint: mean survival time, dose: 200.0 mg/kg/injection, schedule: Q04DX002 (ip), vehicle: Klucel (hydroxypropylcellulose) (HPC) 101 % of control | endpoint: mean survival time, dose: 200.0 mg/kg/injection, schedule: Q04DX002 (ip), vehicle: saline with Tween-80 101 % of control
